{"source": "patent US7470446B2", "about": "“Method and system for supplying amino acids or chemical derivatives in liquid form to ruminant livestock” (Archer-Daniels-Midland Company, priority 2000, dated 2008)", "assay": "Plasma lysine response after liquid lysine drench", "type": "in vivo, bovines", "conditions": "cattle (bovine), oral, 60 g; for concentration at 148 min: 148 minutes (so in the source)", "text": "The following study, performed using liquid lysine supplied in a 60-gram amino acid dose in a liquid drench to two bovines, gave the following response curves in the plasma level of the lysine, which is an index of its absorption by the animals, and illustrates that the esophageal muscle reflex is active: […]", "key": {"[1]": {"conditions": "Cow 1, 60-gram dose, read-out: Cow 1, plasma lysine"}, "[2]": {"conditions": "Cow 2, 60-gram dose, read-out: Cow 2, plasma lysine"}}, "note": "Read-outs that look alike come from different tables or passages of the source.", "data": [{"smiles": "NCCCC[C@H](N)C(=O)O", "note": "[liquid lysine, lysine]", "values": [{"measurement": "concentration at 0 min", "setting": "Cow 1, 60-gram amino acid dose, read-out: Cow 1, plasma lysine", "value": 10000, "unit": "ng/mL"}, {"measurement": "concentration at 80 min", "setting": "[1]", "value": 11300, "unit": "ng/mL"}, {"measurement": "concentration at 148 min", "setting": "[1]", "value": 19700, "unit": "ng/mL"}, {"measurement": "concentration at 160 min", "setting": "[1]", "value": 12400, "unit": "ng/mL"}, {"measurement": "concentration at 240 min", "setting": "[1]", "value": 16100, "unit": "ng/mL"}, {"measurement": "concentration at 360 min", "setting": "[1]", "value": 17300, "unit": "ng/mL"}, {"measurement": "concentration at 420 min", "setting": "[1]", "value": 17500, "unit": "ng/mL"}, {"measurement": "concentration at 540 min", "setting": "[1]", "value": 19300, "unit": "ng/mL"}, {"measurement": "concentration at 600 min", "setting": "[1]", "value": 15400, "unit": "ng/mL"}, {"measurement": "concentration at 24 h", "setting": "[1]", "value": 14400, "unit": "ng/mL"}, {"measurement": "concentration at 0 min", "setting": "Cow 2, 60-gram amino acid dose, read-out: Cow 2, plasma lysine", "value": 10700, "unit": "ng/mL"}, {"measurement": "concentration at 80 min", "setting": "[2]", "value": 10800, "unit": "ng/mL"}, {"measurement": "concentration at 148 min", "setting": "[2]", "value": 20000, "unit": "ng/mL"}, {"measurement": "concentration at 160 min", "setting": "[2]", "value": 13600, "unit": "ng/mL"}, {"measurement": "concentration at 240 min", "setting": "[2]", "value": 22400, "unit": "ng/mL"}, {"measurement": "concentration at 360 min", "setting": "[2]", "value": 24200, "unit": "ng/mL"}, {"measurement": "concentration at 420 min", "setting": "[2]", "value": 24200, "unit": "ng/mL"}, {"measurement": "concentration at 540 min", "setting": "[2]", "value": 17000, "unit": "ng/mL"}, {"measurement": "concentration at 600 min", "setting": "[2]", "value": 14200, "unit": "ng/mL"}, {"measurement": "concentration at 24 h", "setting": "[2]", "value": 12000, "unit": "ng/mL"}]}]}
